We go through one compound from patent US12251465B2, “Dosage form comprising structured solid-solution framework of sparingly-soluble drug and method for manufacture thereof” (priority 2018, dated 2025).

The term solubility denotes how much of the substance goes into solution per volume.

The structures appear in SMILES notation. In brackets after ≈: the same amount, converted by molar mass.

The series is described as follows: Solubility of drug in the dissolution fluid and excipient-fluid solutions (UV absorption). The format is physicochemical. The note with it: 37° C. The protocol:
For determining the solubility of drug in the dissolution fluid, 1 mg ibuprofen particles were put in a UV cuvette. The cuvette was then filled with 2.5 ml of the dissolution fluid (0.1 M HCl in deionized water at 37° C.). The concentration of dissolved drug was monitored by UV absorption using a Perkin Elmer Lambda 1050 Spectrophotometer. Between measurements, the cuvette was flipped at a frequency of 0.5 Hz to stir the solution. The temperature of the solution in the cuvette was maintained at 37° C., during the experiment. When the drug concentration in the solution reached its equilibrium value the drug solubility was recorded.
The solubility of drug in excipient-dissolution fluid solutions was determined by immersing 1.5 mg of the ibuprofen particles and different amounts (1.5-200 mg) of excipient in 2.5 ml dissolution fluid. The excipient was either HPMC or a mixture of 67 wt % HPMC and 33 wt % polyoxyl stearate. The dissolution fluid was 0.1 M HCl in deionized water.

[1] abbreviates: 1 mg ibuprofen particles in 2.5 ml stirred dissolution fluid.

On to `CC(C)Cc1ccc(C(C)C(=O)O)cc1` (stereo not drawn) [ibuprofen], for which, under setting [1], the “concentration of dissolved drug at 3000 minutes (50 h)” value was 40000 ng/mL and the “time to reach the solubility c0” value is ≤ 15,000 minutes. Besides, the solubility (dissolution fluid (0.1 M HCl in deionized water), simulated gastric fluid, thermodynamic from solid, 0.1 M HCl in deionized water, no excipient, read-out: solubility of ibuprofen in the dissolution fluid, c0) is around 50 µg/mL (≈ 242 µM).
